Experimental data from patent US12103914B2, “Compositions of biologically active menaquinol derivatives and methods of treatment” (Epizon Pharma, Inc., priority 2020, dated 2024).

System: vascular calcification and tissue calcification in patient with moderate calciphylaxis
Assay: Treatment of patients diagnosed with moderate calciphylaxis (case examples)
Format: in vivo, human
Method: This example describes the administration of the disclosed compounds to subjects diagnosed with calciphylaxis. Typical symptoms include presentation of characteristic painful skin lesions (Nigwekar et al. (2015) Calciphylaxis: Risk Factors, Diagnosis, and Treatment. Am. J. Kidney Dis. 66:133-46). Definitive diagnosis of calciphylaxis is achieved via skin biopsy. Further conditions need to be considered for correct diagnosis.
The dosage form is a 5 mg, 10 mg, 25 mg, 50 mg or 100 mg soft-gel capsule. Two 50 mg capsules are administered once daily to the 100 mg dosage cohort. […]

Substance	reduction in tissue calcification (70 kg patient, 50 mg, 3 months) [%]	reduction in vascular calcification (suggested by change in examined biomarker levels) (70 kg patient, 50 mg, 3 months) [%]	reduction in tissue calcification (45 kg patient, 20 mg, 10 weeks) [%]	reduction in vascular calcification (suggested by change in examined biomarker levels) (45 kg patient, 20 mg, 10 weeks) [%]	reduction in tissue calcification (65 kg patient, 100 mg, 8 weeks) [%]	reduction in vascular calcification (suggested by change in examined biomarker levels) (65 kg patient, 100 mg, 8 weeks) [%]
Potassium salt of Menaquinol-7	20	~25	–	–	–	–
Calcium salt of Menaquinol-7	–	–	15	~20	10	~10
